Among the test systems are MCF7 breast; SR leukemia; RXF 393 renal; KM12 colon; CCRF-CEM leukemia; UACC-257 melanoma; COLO 205 colon; TK-10 renal; HCT-116 colon; CAKI-1 renal.
Holding throughout (test): NCI tumour cell line growth inhibition, 48 h

TGI and GI50 data for nine compounds are collected here from PubChem BioAssay (NCI).

Structures are written as SMILES.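 1) Cells in 96-well plates. 2) Compound, 48 h, 5 concentrations. 3) Linear interpolation between surrounding doses. 4) Unreached endpoint = highest concentration. GI50 marks 50% less growth. At the TGI there is no net growth.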 Bounds are passed on as bounds.

On to `CCOC(=O)c1cc(-c2ccc(OC)cc2)c([N+](=O)[O-])[nH]1`, for which the TGI in the test with MCF7 breast, in the test with SR leukemia, with RXF 393 renal, in the test with KM12 colon, in the test with CCRF-CEM leukemia and in the test with UACC-257 melanoma was greater than 10 µM in each case. Moreover, the TGI in the test on COLO 205 colon, in the test on TK-10 renal, with HCT-116 colon and with CAKI-1 renal was greater than 10 µM each time.
On to `N#Cc1nc(CCc2nc(C#N)c(N)o2)oc1N`, for which the TGI in the test on MCF7 breast, in the test with SR leukemia, in the test on RXF 393 renal, in the test on KM12 colon, with CCRF-CEM leukemia and with UACC-257 melanoma was greater than 10 µM each time. The TGI in the test on COLO 205 colon, in the test on TK-10 renal, in the test with HCT-116 colon and with CAKI-1 renal was greater than 10 µM throughout.
As to `O=C1c2ccccc2-c2nc3ccncc3n21`, the TGI with MCF7 breast, with SR leukemia, in the test on RXF 393 renal, in the test on KM12 colon, in the test with CCRF-CEM leukemia and in the test on UACC-257 melanoma was greater than 100 µM each time. Besides, the TGI in the test with COLO 205 colon, in the test with TK-10 renal, with HCT-116 colon and with CAKI-1 renal was greater than 100 µM throughout.
As for `CN(C)CCC(=O)Nc1ccc(-n2cc(-c3cccc(NC(=S)Nc4cccc(-c5cn(-c6ccc(NC(=O)CCN(C)C)cc6)nn5)c4)c3)nn2)cc1`, the GI50 in the test with MCF7 breast is 3.25 µM; in the test on SR leukemia it was 26.2 µM; in the test on RXF 393 renal, greater than 100 µM; in the test with KM12 colon, 10.7 µM; in the test with CCRF-CEM leukemia it was 21.4 µM; with UACC-257 melanoma, 26.2 µM. The GI50 in the test with COLO 205 colon is 14.2 µM; with TK-10 renal it was 83.7 µM; in the test on HCT-116 colon, 12.7 µM; in the test on CAKI-1 renal, greater than 100 µM. The TGI in the test with MCF7 breast was 40.3 µM; in the test on SR leukemia, greater than 100 µM; in the test on RXF 393 renal, greater than 100 µM; with KM12 colon, 34 µM; with CCRF-CEM leukemia it was 78.3 µM; in the test on UACC-257 melanoma, 67.4 µM. Also, the TGI in the test with COLO 205 colon was 45.7 µM; in the test with TK-10 renal, greater than 100 µM; in the test on HCT-116 colon, 40.4 µM; with CAKI-1 renal, greater than 100 µM.
Regarding `CC(C)(C)C[C@H]1N[C@@H](C(=O)NC2CCC(O)CC2)[C@H](c2cccc(Cl)c2F)[C@@]12C(=O)Nc1cc(Cl)ccc12` (some centres undefined), the GI50 with MCF7 breast is 0.228 µM; in the test with SR leukemia it was 0.189 µM; with RXF 393 renal it was 3.38 µM; with KM12 colon, 6.85 µM; in the test with CCRF-CEM leukemia, 3.51 µM; with UACC-257 melanoma, 1.16 µM. The GI50 with COLO 205 colon was 3.67 µM; in the test with TK-10 renal it was 11.9 µM; with HCT-116 colon, 0.41 µM; in the test on CAKI-1 renal, 0.162 µM. In addition, the TGI in the test with MCF7 breast was 2.98 µM; in the test on SR leukemia it was 5.45 µM; with RXF 393 renal, 17.2 µM; in the test with KM12 colon it was 22.1 µM; in the test with CCRF-CEM leukemia, 15.4 µM; with UACC-257 melanoma, 13.7 µM. Further, the TGI with COLO 205 colon is 16 µM; in the test with TK-10 renal, 25 µM; in the test on HCT-116 colon, 11.9 µM; in the test on CAKI-1 renal it was 12.4 µM.
With `N#C/C(=C\c1ccc2[nH]ccc2c1)C(=O)NCCCCNC(=O)/C(C#N)=C/c1ccc2[nH]ccc2c1`, the TGI with MCF7 breast is greater than 10 µM; in the test with SR leukemia, greater than 31.6 µM; in the test on RXF 393 renal, greater than 10 µM; with KM12 colon, greater than 31.6 µM; with CCRF-CEM leukemia, greater than 31.6 µM; with UACC-257 melanoma, greater than 31.6 µM. Besides, the TGI in the test on COLO 205 colon, with TK-10 renal, with HCT-116 colon and in the test on CAKI-1 renal was greater than 31.6 µM each time.
Turning to `C[C@@]1(F)[C@H](O)[C@@H](CO)O[C@H]1n1ccc(=O)[nH]c1=O`, the GI50 with MCF7 breast, in the test on SR leukemia, in the test with RXF 393 renal, with KM12 colon, in the test on CCRF-CEM leukemia and with UACC-257 melanoma was greater than 100 µM in each case. In addition, the GI50 with COLO 205 colon, in the test on TK-10 renal, in the test with HCT-116 colon and in the test on CAKI-1 renal was greater than 100 µM throughout. In addition, the TGI in the test with MCF7 breast, with SR leukemia, in the test with RXF 393 renal, in the test with KM12 colon, in the test with CCRF-CEM leukemia and in the test on UACC-257 melanoma was greater than 100 µM throughout. The TGI with COLO 205 colon, with TK-10 renal, in the test on HCT-116 colon and in the test on CAKI-1 renal was greater than 100 µM in each case.
With `O=C1C(=O)c2c(nc3ccc(C(F)(F)F)cn23)-c2ccccc21`, the GI50 in the test on MCF7 breast was 0.168 µM; in the test on SR leukemia it was 0.225 µM; with RXF 393 renal it was 0.254 µM; in the test on KM12 colon, 0.288 µM; with CCRF-CEM leukemia it was 0.39 µM; with UACC-257 melanoma, 0.193 µM. Further, the GI50 in the test with COLO 205 colon is 1.63 µM; in the test on TK-10 renal it was 0.738 µM; in the test with HCT-116 colon it was 0.176 µM; in the test on CAKI-1 renal, 0.162 µM. Besides, the TGI was 0.4 µM in the test with MCF7 breast; greater than 100 µM in the test on SR leukemia; 0.616 µM with RXF 393 renal; 0.995 µM in the test on KM12 colon; 0.363 µM in the test on UACC-257 melanoma; 3.52 µM in the test with COLO 205 colon. Further, the TGI worked out at 1.24 µM with TK-10 renal, 0.354 µM with HCT-116 colon and 0.297 µM with CAKI-1 renal.
For `CC1(C)CC(C)(C)c2cc(NC(=S)Nc3ccc([N+](=O)[O-])cc3)ccc2S1`, the GI50 in the test with MCF7 breast is 29.1 µM; in the test on SR leukemia it was 12.9 µM; in the test on RXF 393 renal, 17.9 µM; in the test with KM12 colon, 10.9 µM; with CCRF-CEM leukemia it was 12.3 µM; with UACC-257 melanoma it was 13.6 µM. In addition, the GI50 with COLO 205 colon is 13 µM; with TK-10 renal, 10.3 µM; with HCT-116 colon, 14.9 µM; with CAKI-1 renal, 11.5 µM. The TGI in the test on MCF7 breast is greater than 82.1 µM; in the test on SR leukemia it was greater than 88.2 µM; in the test on RXF 393 renal, 51.8 µM; in the test with KM12 colon it was 34.8 µM; in the test on CCRF-CEM leukemia, 41.1 µM; with UACC-257 melanoma, 50.7 µM. Besides, the TGI in the test with COLO 205 colon is 59.4 µM; in the test on TK-10 renal it was 24.8 µM; with HCT-116 colon, greater than 100 µM; with CAKI-1 renal, 32.1 µM.
